Test results reported in ChEMBL document CHEMBL4325841, “5-(4-Hydroxyphenyl)-3H-1,2-dithiole-3-thione-based fibrates as potential hypolipidemic and hepatoprotective agents” (2018).
Calls of active or inactive are those of the source. The calls are words filed in the database; no cut-off is given here.

Key:
Mus musculus [1] = test: Antihyperlipidemic activity in Triton WR-1339-induced hyperlipidemic mouse model assessed as decrease in total cholesterol level at 13 mg/kg, po for 7 days and co-treated with Triton WR-1339 on day 6; type: functional, organism-based
Mus musculus [2] = test: Antihyperlipidemic activity in Triton WR-1339-induced hyperlipidemic mouse model assessed as decrease in serum triglyceride level at 13 mg/kg, po for 7 days and co-treated with Triton WR-1339 on day 6; type: functional, organism-based
Mus musculus [3] = test: Antihyperlipidemic activity in Triton WR-1339-induced hyperlipidemic mouse model assessed as decrease in serum MDA level at 13 mg/kg, po for 7 days and co-treated with Triton WR-1339 on day 6; type: functional, organism-based
Mus musculus [4] = test: Antihyperlipidemic activity in high fat diet-induced hyperlipidemic mouse model assessed as reduction in serum triglyceride level at 13 mg/kg, po administered for last 30 days during 60 days of high fat diet feeding relative to control; type: functional
Mus musculus [5] = test: Antihyperlipidemic activity in high fat diet-induced hyperlipidemic mouse model assessed as reduction in total cholesterol level at 13 mg/kg, po administered for last 30 days during 60 days of high fat diet feeding relative to control; type: functional
Mus musculus [6] = organism: Mus musculus; test: animal or person; type: functional; details: po
Description: Antihyperlipidemic activity in high fat diet-induced hyperlipidemic mouse model assessed as reduction in atherosclerosis index at 13 mg/kg, po administered for last 30 days during 60 days of high fat diet feeding relative to control

Mus musculus [7] = test: Antihyperlipidemic activity in high fat diet-induced hyperlipidemic mouse model assessed as LDL level at 13 mg/kg, po administered for last 30 days during 60 days of high fat diet feeding relative to control; type: functional
Mus musculus [8] = test: Antihyperlipidemic activity in high fat diet-induced hyperlipidemic mouse model assessed as increase in HDL level at 13 mg/kg, po administered for last 30 days during 60 days of high fat diet feeding relative to control; type: functional
Mus musculus [9] = test: Antioxidant activity in high fat diet-induced hyperlipidemic mouse model assessed as increase in SOD level at 13 mg/kg, po administered for last 30 days during 60 days of high fat diet feeding relative to control; type: functional
Mus musculus [10] = test: Antioxidant activity in high fat diet-induced hyperlipidemic mouse model assessed as reduction in MDA level at 13 mg/kg, po administered for last 30 days during 60 days of high fat diet feeding relative to control; type: functional
Mus musculus [11] = test: Antioxidant activity in high fat diet-induced hyperlipidemic mouse model assessed as increase in GSH-PX level at 13 mg/kg, po administered for last 30 days during 60 days of high fat diet feeding relative to control; type: functional
Mus musculus [12] = test: In vivo anti-inflammatory activity in high fat diet-induced hyperlipidemic mouse model assessed as reduction in TNF-alpha level at 13 mg/kg, po administered for last 30 days during 60 days of high fat diet feeding relative to control; type: functional
Mus musculus [13] = test: In vivo anti-inflammatory activity in high fat diet-induced hyperlipidemic mouse model assessed as reduction in IL-6 level at 13 mg/kg, po administered for last 30 days during 60 days of high fat diet feeding relative to control; type: functional
Mus musculus [14] = test: Hepatoprotective activity in high fat diet-induced hyperlipidemic mouse model assessed as reduction in AST level at 13 mg/kg, po administered for last 30 days during 60 days of high fat diet feeding relative to control; type: functional
Mus musculus [15] = test: Hepatoprotective activity in high fat diet-induced hyperlipidemic mouse model assessed as reduction in ALT level at 13 mg/kg, po administered for last 30 days during 60 days of high fat diet feeding relative to control; type: functional
Mus musculus [16] = test: Hepatoprotective activity in high fat diet-induced hyperlipidemic mouse model assessed as inhibition of lipid accumulation at 13 mg/kg, po administered for last 30 days during 60 days of high fat diet feeding by oil-red O staining-based microscopic analysis; type: functional, organism-based
Mus musculus [17] = test: Hepatoprotective activity in high fat diet-induced hyperlipidemic mouse model assessed as decrease in tissue hemorrhage at 13 mg/kg, po administered for last 30 days during 60 days of high fat diet feeding by H and E staining-based microscopic analysis; type: functional, organism-based
Mus musculus [18] = test: Hepatoprotective activity in high fat diet-induced hyperlipidemic mouse model assessed as decrease in inflammatory cell infiltration at 13 mg/kg, po administered for last 30 days during 60 days of high fat diet feeding by H and E staining-based microscopic analysis; type: functional, organism-based

Row | Compound | Activity (Mus musculus [1]) | Activity (Mus musculus [2]) | Activity (Mus musculus [3]) | also measured
1 | CCOC(=O)CCCCCCOc1ccc(-c2cc(=S)ss2)cc1 | Active | Active | Active | –
2 | CCOC(=O)CCCCOc1ccc(-c2cc(=S)ss2)cc1 | Active | Active | Active | –
3 | COc1ccc(-c2cc(=S)ss2)cc1 | inactive | inactive | – | –
4 | CCOC(=O)C(C)(C)Oc1ccc(-c2cc(=S)ss2)cc1 | – | Active | Active | –
5 | CCOC(=O)CCCCCOc1ccc(-c2cc(=S)ss2)cc1 | Active | Active | Active | inhibition in vivo at 13 mg/kg (Mus musculus [4]): 29.4%; inhibition in vivo at 13 mg/kg (Mus musculus [5]): 12.5%; inhibition in vivo at 13 mg/kg (Mus musculus [6]): 40.1%; inhibition in vivo at 13 mg/kg (Mus musculus [7]): 30.7%; Activity (Mus musculus [8]): 21.4%; Activity (Mus musculus [9]): 10.8%; inhibition in vivo at 13 mg/kg (Mus musculus [10]): 10.1%; Activity (Mus musculus [11]): 19.2%; inhibition in vivo at 13 mg/kg (Mus musculus [12]): 31.8%; inhibition in vivo at 13 mg/kg (Mus musculus [13]): 18.4%; inhibition in vivo at 13 mg/kg (Mus musculus [14]): 31.5 to 39%; inhibition in vivo at 13 mg/kg (Mus musculus [15]): 8.2%; Activity (Mus musculus [16]): Active; Activity (Mus musculus [17]): Active; Activity (Mus musculus [18]): Active
6 | CCOC(=O)C(C)Oc1ccc(-c2cc(=S)ss2)cc1 (stereo not given) | – | Active | Active | –
7 | CC(C)OC(=O)C(C)(C)Oc1ccc(C(=O)c2ccc(Cl)cc2)cc1 [FENOFIBRATE] | inactive | Active | Active | Activity (Mus musculus [8]): 19.4%; Activity (Mus musculus [9]): 10.9%; Activity (Mus musculus [11]): 9.9%
8 | CCOC(=O)COc1ccc(-c2cc(=S)ss2)cc1 | – | Active | Active | –
9 | CCOC(=O)C(CC)Oc1ccc(-c2cc(=S)ss2)cc1 (stereo not given) | – | Active | Active | –
